Measurements from PubChem BioAssay (NCI).
“And” between values parts separate entries of the source, which are not always exact repeats. Equal values may be shown once.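 Cultured in 96-well plates, cells were exposed to test compound for 48 hours across five concentrations. The concentration for 50% growth inhibition is given as GI50. At the TGI there is no net growth.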

tested on: MDA-MB-468 breast; assay: NCI anticancer screen, dose series, 48 h

SMILES | GI50 | TGI
N#Cc1cc(-c2ccccc2)[nH]c1-c1nccc2ccccc12 | 3330 nM | 44900 nM
COC(=O)C1=C(C(=O)Nc2cccnc2)C2OC1(C(Cc1ccccc1)Oc1ccccc1)C1OC21 (centres undefined) | 1720 nM | 4250 nM
CC1=C(CN(O)C(N)=O)C2=C(C)C3(CC3)[C@@](C)(O)C(=O)C2=C1 | 141 nM | 347 nM
Cn1c(=O)c(Sc2ccccc2F)cc2cnc(NC3CCOCC3)nc21 | > 25000 nM | > 25000 nM
C[C@H](Nc1ccc(C#N)n(C)c1=O)c1cc2cc(Cl)ccc2[nH]c1=O | 21600 nM | 84000 nM
CCCCCCCCCCCCCCCCCC(=O)[O][Sn]([CH2]CCC)([CH2]CCC)[CH2]CCC | 83.5 nM | 214 nM
CCNC(=O)Nc1ccc(-c2nc3c(c(N4CCOC[C@@H]4C)n2)CCN(C2COC2)C3)cc1 | 135 nM and 125 nM | 1720 nM and 1380 nM
Clc1ccc(-c2nc(-c3c[nH]c4ncccc34)cs2)cc1 | > 100000 nM | > 100000 nM
O=C(NNc1nc2cc(F)ccc2n2cccc12)c1ccncn1 | 293 nM | 1650 nM
CCc1ccc(/C(C#N)=C/C=C/c2ccccc2)cc1 | 838 nM | 9870 nM
O=C1OCC2=C1C(c1cccc([N+](=O)[O-])c1)c1cc3c(cc1N2CCO)CCC3 (centres undefined) | 147 nM | 8880 nM
COc1cc(C2=Nc3c/c(=C\c4c(O)[nH]c5ccc(Cl)cc45)ccc3=N2)cc(OC)c1OC | 1970 nM | 4410 nM
C=CC[Se]C(=O)c1ccccc1OC(C)=O | 1780 nM | 3750 nM
O=C(/C=C\c1cccc([N+](=O)[O-])c1)c1ccccc1 | 1650 nM | 9510 nM
NC(=O)Cc1ccccc1Oc1nccc(-c2c(-c3ccc(F)cc3)ncn2C2CCNCC2)n1 | 8200 nM | > 25000 nM
O=C(/C=C/c1ccccc1O)c1ccccc1 | 6060 nM | 19200 nM
O=Cc1ncc(-c2ccc(C(F)(F)F)cc2)c(NC2CCCCCC2)n1 | > 10000 nM | > 10000 nM
CCOc1ccc(/C=N/Nc2cc(C)nc3ccc(Cl)cc23)cc1 | 1730 nM | 3270 nM
COc1cccc(C2=NN(C(C)=O)C(c3cc(OC)c(OC)c(OC)c3)C2)c1 (centres undefined) | 1010 nM | > 30900 nM
Clc1cccc(Cn2cc(Cc3cn(Cc4cccc(Cl)c4)c4ccccc34)c3ccccc32)c1 | 17000 nM | 37300 nM
CCN(CC)CCC(CNc1c2ccc([N+](=O)[O-])cc2nc2cc(OC)c(OC)cc12)c1ccccc1 (centres undefined) | 324 nM and 229 nM | 1630 nM and 1220 nM
Cc1oncc1C(=O)Nc1ccc(C(F)(F)F)cc1 | 37100 nM | > 100000 nM
Cc1cc(N2CCOCC2)nc(N(CCNc2ccnc3cc(Cl)ccc23)Cc2ccco2)n1 | 2090 nM | 6410 nM
C[C@H]1O[C@@H](O[C@H]2[C@@H](O)C[C@H](O[C@H]3[C@@H](O)C[C@H](O[C@H]4CC[C@]5(C)C6C[C@@H](O)[C@]7(C)[C@@H](C8=CC(=O)OC8)CC[C@]7(O)C6CC[C@@H]5C4)O[C@@H]3C)O[C@@H]2C)C[C@H](O)[C@@H]1O (some centres undefined) | 148 nM | 465 nM
COc1cc(-c2nn(C)nc2-c2cc3ccccc3s2)cc(OC)c1OC | 82.8 nM | > 100000 nM
O=C(Nc1cccnc1)c1cccs1 | 603 nM | > 100000 nM

SMILES | GI50 | TGI
Clc1ccc(N/N=C/c2ccccn2)nc1 | 260 nM | 1510 nM
COC(=O)c1c2c(c[n+]([O-])c1C)C(=O)C(NCc1ccccc1)=CC2=O | 232 nM | 672 nM
COc1ccc(Nc2nc(NCc3ccccc3)c3ccccc3n2)cc1 | 1610 nM | 3370 nM
CCCCN(CCCC)c1cc(C(=O)CCCCCN)c2ccccc2n1 | 1430 nM | 3050 nM
Nc1cccc(-c2nc3sccn3c2-c2ccnc(NCCCNS(=O)(=O)c3ccc(C(F)(F)F)cc3)n2)c1 | 2440 nM | 33800 nM
COc1c(Nc2ncc(Cl)c(N[C@@H]3[C@H]4C=CC(C4)[C@@H]3C(N)=O)n2)ccc2c1CC[C@@H](N1CCOCC1)CC2 | 2200 nM | 8130 nM
NC(=O)c1ncn(C2OC(CO)C(O)C2O)n1 (centres undefined) | 69700 nM | > 100000 nM
Cc1nc(NC(=O)COc2cccc(/C=C3\COc4ccccc4C3=O)c2)sc1C | 1760 nM | 3840 nM
NCC(=O)Nc1ccc(-n2nc(C(F)(F)F)cc2-c2ccc3c(ccc4ccccc43)c2)cc1 | 1560 nM | 3020 nM
Cc1ccccc1NC(=O)N/C(N)=N/c1nc2ccccc2s1 | 233 nM | > 100000 nM
O=C(O[C@H]1CN[C@H](C#Cc2cc3ncnc(Nc4ccc(Cc5ccccc5)cc4)c3s2)C1)N1CCOCC1 | 1270 nM | 6370 nM
COc1cccc(N2CCN(c3ncnc4c3[nH]c3ccc(F)cc34)C[C@@H]2C)c1 | 1590 nM | 5310 nM
CN(C)c1cc2c(Nc3ccc4nc(Cc5ccccc5)[nH]c4c3)ncnc2cn1 | > 9600 nM | > 25000 nM
O=C(Nc1cccc(-n2cc(-c3ccncc3)c(-c3cc(O)cc(Cl)c3)n2)c1)Nc1ccc(Cl)c(Cl)c1 | 1710 nM | 7090 nM
CCN1CCN(CCNc2nccc(-c3c(-c4cccc(O)c4)nc4sccn34)n2)S1(=O)=O | 9040 nM and 12500 nM | 32500 nM and 36600 nM
COc1ccc(S(=O)(=O)Nc2cc(/C=C\c3cc(OC)c(OC)c(OC)c3)cc(OC)c2OC)cc1OC | 269 nM | 1290 nM
O=S(=O)(c1ccc2c(c1)C(=NO)c1cc(S(=O)(=O)N3CCCCC3)ccc1-2)N1CCCCC1 | 237 nM and 137 nM | 608 nM and 277 nM
CC(C)[C@@H]1NC(=O)[C@]2(C)CSC(=N2)c2csc(n2)CNC(=O)C[C@@H](/C=C/CCS)OC1=O | 206 nM | 4430 nM
O=C1OCC2=C1C(c1ccccc1)c1cc3c(cc1N2CCO)CCC3 (centres undefined) | 55.9 nM | 156 nM
O=C(/C=C/c1ccccc1Cl)c1ccc(O)cc1 | 2770 nM | 13000 nM
CNC(=O)c1cc(Oc2ccc3nc(NC(=O)c4cc(C(F)(F)F)cc(C(F)(F)F)c4)sc3c2)ccn1 | 3180 nM | 14200 nM
O=C(c1ccc(F)c(F)c1Nc1ccc(I)cc1F)N1CC(O)([C@H]2CCCCN2)C1 | 4520 nM | 10700 nM
CN(C)c1cc2c(cc1Sc1nc3c(N)nccc3n1CCNCC(C)(C)C)OCO2 | 268 nM | 888 nM
CCS(=O)(=O)c1ccc(OC)c(Nc2ncc(-c3cccc(-c4ccccc4F)c3)o2)c1 | 4950 nM | > 25000 nM
O=[N+]([O-])c1ccc(Oc2cccnc2)c([N+](=O)[O-])c1 | 3060 nM | 13800 nM
C=C1C(=O)O[C@H]2[C@H]1CC/C(COC(=O)NCc1c[nH]c3ccc(OC)cc13)=C\CC[C@@]1(C)O[C@@H]21 | 1320 nM | 4620 nM
